Test results published in patent publication US11612603B1, “3-triazolyl methyl-1,3,5-triazine-2,4-dione compounds and preparation method and application thereof” (priority 2022, dated 2023).
Values joined by “and” are separate entries in the source; they are usually repeats but may differ in a detail not shown here. Equal values may be shown once.

Target: SARS-CoV-2 3CL^pro (Severe acute respiratory syndrome coronavirus 2 (2019-nCoV) (SARS-CoV-2), UniProt P0DTD1)
Test: biochemical
Settings: for IC50: 3CL^pro FRET

Compound	IC50 (class symbols) [nM]	IC50	also measured
COc1cc(Cn2c(=O)n(Cc3cnn[nH]3)c(=O)[nH]/c2=N\c2cc3cn(C)nc3cc2Cl)cc(OC)c1 [Compound 14]	500 to 1000	–	–
Cn1cc2cc(/N=c3\[nH]c(=O)n(Cc4cnn[nH]4)c(=O)n3Cc3cc(F)cc(F)c3)c(Cl)cc2n1 [Compound 15]	–	< 200 nM	–
Cn1cc2cc(/N=c3\[nH]c(=O)n(Cc4cnnn4C)c(=O)n3Cc3cc(F)c(F)cc3F)c(Cl)cc2n1 [Compound 16]	–	< 200 nM	–
Cn1cc2cc(/N=c3\[nH]c(=O)n(Cc4cnnn4C4CC4)c(=O)n3Cc3cc(F)c(F)cc3F)c(Cl)cc2n1 [Compound 21]	200 to 500	–	–
CC(C)n1nncc1Cn1c(=O)[nH]/c(=N\c2cc3cn(C)nc3cc2Cl)n(Cc2cc(F)c(F)cc2F)c1=O [Compound 22]	–	< 200 nM	–
CC(C)Cn1nncc1Cn1c(=O)[nH]/c(=N\c2cc3cn(C)nc3cc2Cl)n(Cc2cc(F)c(F)cc2F)c1=O [Compound 23]	–	< 200 nM	–
Cn1cc2cc(/N=c3\[nH]c(=O)n(Cc4cnnn4C4CCC4)c(=O)n3Cc3cc(F)c(F)cc3F)c(Cl)cc2n1 [Compound 24]	200 to 500	–	–
(E)-6-(2-methyl-2H-indazol-5-yl)imino)-3-(1-ethyl-1H-1,2,3-triazol-5-yl)methyl)-1-(4-fluorobenzyl)-1,3,5-triazine-2,4-dione [Compound 19]	200 to 500	–	–
(E)-6-(6-chloro-2-methyl-2H-indazol-5-yl)imino)-3-(1-ethyl-1H-1,2,3-triazole-5-(yl)methyl)-1-(4-(trifluoromethyl)benzyl)-1,3,5-triazine-2,4-dione [Compound 18]	< 100	< 100 nM	–
(E)-6-(6-chloro-2-methyl-2H-indazol-5-yl)imino)-3-(1-ethyl-1H-1,2,3-triazole-5-yl)methyl)-1-(2,4,5-trifluorobenzyl)-1,3,5-triazine-2,4-dione [Compound 17]	< 100	< 200 nM and < 100 nM and 123 nM	Inhibitory activity on 3CL^pro (inhibition rate) (Conc 0.1 nM): 0.65%; Inhibitory activity on 3CL^pro (inhibition rate) (Conc 1 nM): 5.00%; Inhibitory activity on 3CL^pro (inhibition rate) (Conc 5 nM): 8.20%; Inhibitory activity on 3CL^pro (inhibition rate) (Conc 10 nM): 15.16%; Inhibitory activity on 3CL^pro (inhibition rate) (Conc 20 nM): 18.22%; Inhibitory activity on 3CL^pro (inhibition rate) (Conc 30 nM): 24.39%; Inhibitory activity on 3CL^pro (inhibition rate) (Conc 50 nM): 33.16%; Inhibitory activity on 3CL^pro (inhibition rate) (Conc 100 nM): 45.44%; Inhibitory activity on 3CL^pro (inhibition rate) (Conc 500 nM): 70.62%; Inhibitory activity on 3CL^pro (inhibition rate) (Conc 1000 nM): 89.73%
(E)-6-(6-chloro-2-methyl-2H-indazol-5-yl)imino)-3-(1-ethyl-1H-1,2,3-triazole-5-yl)methyl)-1-(4-fluorobenzyl)-1,3,5-triazine-2,4-dione [Compound 20]	200 to 500	–	–
